Molecules are shown by their SMILES. ± gives the expanded uncertainty stated by the source.

The nature of the series: activity coefficient (dimensionless); of the first substance listed, at infinite dilution; xn = mol fraction of the nth substance listed. To be noted: 101 kPa, Liquid, Chromatography, x1 = 0.

With `COCCOC` [1,2-dimethoxyethane] + CCCC[N+]1(C)CCCC1.N#CN=C=[N-], the activity coefficient (318.15 K) is 1.19 ± 0.08; the activity coefficient (323.15 K) turned out to be 1.23 ± 0.08; the activity coefficient (333.15 K) is 1.31 ± 0.09; the activity coefficient (343.15 K) was determined as 1.39 ± 0.09; the activity coefficient (353.13 K) was determined as 1.46 ± 0.1.

Regarding `C1CCOC1` [tetrahydrofuran] + CCCC[N+]1(C)CCCC1.N#CN=C=[N-], the activity coefficient runs as follows: (318.15 K) 1.36 ± 0.09; (323.15 K) 1.38 ± 0.09; (333.15 K) 1.42 ± 0.09; (343.15 K) 1.46 ± 0.1; (353.15 K) 1.49 ± 0.1.

Turning to `C=CCCCCCC` [oct-1-ene] + CCCC[N+]1(C)CCCC1.N#CN=C=[N-], the activity coefficient (318.15 K) came out at 47.3 ± 3.2; the activity coefficient (323.15 K) was determined as 46.3 ± 3.2; the activity coefficient (333.15 K) came to 44.4 ± 3; the activity coefficient (343.15 K) was 42.4 ± 2.9; the activity coefficient (353.15 K) turned out to be 40.8 ± 2.8.

Turning to `Cc1cccc(C)c1` [1,3-dimethylbenzene] + CCCC[N+]1(C)CCCC1.N#CN=C=[N-], the activity coefficient (318.15 K) was found to be 3.46 ± 0.24; the activity coefficient (323.15 K) is 3.5 ± 0.24; the activity coefficient (333.15 K) turned out to be 3.56 ± 0.24; the activity coefficient (343.15 K) was found to be 3.61 ± 0.25; the activity coefficient (353.15 K) is 3.67 ± 0.25.

Consider `CCCCCCCC` [octane] + CCCC[N+]1(C)CCCC1.N#CN=C=[N-], for which the activity coefficient reads like this: (318.15 K) 115 ± 8; (323.15 K) 110 ± 8; (333.15 K) 102 ± 7; (343.15 K) 95.2 ± 6.5; (353.15 K) 89.2 ± 6.1.

For the molecule `COC(=O)OC` [dimethyl carbonate] + CCCC[N+]1(C)CCCC1.N#CN=C=[N-], the activity coefficient was found to be 1.26 ± 0.08 (318.15 K); 1.27 ± 0.08 (323.15 K); 1.29 ± 0.08 (333.15 K); 1.31 ± 0.09 (343.15 K); 1.33 ± 0.09 (353.15 K).

With `CC(C)OC(C)C` [diisopropyl ether] + CCCC[N+]1(C)CCCC1.N#CN=C=[N-], the activity coefficient by setting is: (318.15 K) 17.9 ± 1.2; (323.15 K) 17.9 ± 1.2; (333.15 K) 18 ± 1.2; (343.15 K) 17.9 ± 1.2; (353.15 K) 17.9 ± 1.2.

For `CC1CCCCC1` [methylcyclohexane] + CCCC[N+]1(C)CCCC1.N#CN=C=[N-], the activity coefficient amounted to 32.5 ± 2.2 (318.15 K); 31.7 ± 2.2 (323.15 K); 30 ± 2.1 (333.15 K); 28.4 ± 1.9 (343.15 K); 27.1 ± 1.9 (353.15 K).

Turning to `ClC(Cl)(Cl)Cl` [tetrachloromethane] + CCCC[N+]1(C)CCCC1.N#CN=C=[N-], the activity coefficient runs as follows: (318.15 K) 2.04 ± 0.14; (323.15 K) 2.11 ± 0.14; (333.15 K) 2.25 ± 0.15; (343.15 K) 2.38 ± 0.16; (353.15 K) 2.5 ± 0.17.

In the case of `c1ccsc1` [thiophene] + CCCC[N+]1(C)CCCC1.N#CN=C=[N-], the activity coefficient (318.15 K) came out at 0.851 ± 0.055; the activity coefficient (323.15 K) worked out at 0.868 ± 0.055; the activity coefficient (333.15 K) was found to be 0.901 ± 0.057; the activity coefficient (343.15 K) was determined as 0.931 ± 0.059; the activity coefficient (353.15 K) came out at 0.962 ± 0.06.

As to `CCc1ccccc1` [ethylbenzene] + CCCC[N+]1(C)CCCC1.N#CN=C=[N-], the activity coefficient reads like this: (318.15 K) 3.52 ± 0.24; (323.15 K) 3.55 ± 0.24; (333.15 K) 3.6 ± 0.25; (343.15 K) 3.65 ± 0.25; (353.15 K) 3.69 ± 0.25.

Take `ClC(Cl)Cl` [trichloromethane] + CCCC[N+]1(C)CCCC1.N#CN=C=[N-]: the activity coefficient was 0.391 ± 0.034 (318.15 K); 0.411 ± 0.034 (323.15 K); 0.453 ± 0.036 (333.15 K); 0.496 ± 0.038 (343.15 K); 0.54 ± 0.039 (353.15 K).

For `C[N+](=O)[O-]` [nitromethane] + CCCC[N+]1(C)CCCC1.N#CN=C=[N-], the activity coefficient was found to be 0.592 ± 0.042 (318.15 K); 0.596 ± 0.042 (323.15 K); 0.604 ± 0.042 (333.15 K); 0.609 ± 0.043 (343.15 K); 0.615 ± 0.043 (353.15 K).

In the case of `CCCO` [propan-1-ol] + CCCC[N+]1(C)CCCC1.N#CN=C=[N-], the activity coefficient turned out to be 0.688 ± 0.046 (318.15 K); 0.68 ± 0.046 (323.15 K); 0.668 ± 0.045 (333.15 K); 0.656 ± 0.045 (343.15 K); 0.647 ± 0.044 (353.15 K).

On to `C1CCCCC1` [cyclohexane] + CCCC[N+]1(C)CCCC1.N#CN=C=[N-], for which the activity coefficient runs as follows: (318.15 K) 21.1 ± 1.4; (323.15 K) 20.6 ± 1.4; (333.15 K) 19.5 ± 1.3; (343.15 K) 18.5 ± 1.3; (353.15 K) 17.7 ± 1.2.

For `CCOC(C)=O` [ethyl acetate] + CCCC[N+]1(C)CCCC1.N#CN=C=[N-], the activity coefficient (318.15 K) came to 2.33 ± 0.16; the activity coefficient (323.15 K) stood at 2.35 ± 0.16; the activity coefficient (333.15 K) is 2.39 ± 0.16; the activity coefficient (343.15 K) was determined as 2.43 ± 0.17; the activity coefficient (353.15 K) was found to be 2.47 ± 0.17.

Take `COC(C)=O` [methyl ethanoate] + CCCC[N+]1(C)CCCC1.N#CN=C=[N-]: the activity coefficient turned out to be 1.51 ± 0.1 (318.15 K); 1.53 ± 0.1 (323.15 K); 1.56 ± 0.1 (333.15 K); 1.59 ± 0.11 (343.15 K); 1.63 ± 0.11 (353.15 K).

On to `c1ccccc1` [benzene] + CCCC[N+]1(C)CCCC1.N#CN=C=[N-], for which the activity coefficient was found to be 1.41 ± 0.09 (318.15 K); 1.42 ± 0.09 (323.15 K); 1.46 ± 0.1 (333.15 K); 1.49 ± 0.1 (343.15 K); 1.53 ± 0.1 (353.15 K).

Consider `CC#N` [acetonitrile] + CCCC[N+]1(C)CCCC1.N#CN=C=[N-], for which the activity coefficient by setting is: (318.15 K) 0.67 ± 0.045; (323.15 K) 0.676 ± 0.046; (333.15 K) 0.68 ± 0.046; (343.15 K) 0.684 ± 0.046; (353.15 K) 0.687 ± 0.046.

Turning to `CO` [methanol] + CCCC[N+]1(C)CCCC1.N#CN=C=[N-], the activity coefficient (318.15 K) is 0.344 ± 0.032; the activity coefficient (323.15 K) is 0.344 ± 0.032; the activity coefficient (333.15 K) turned out to be 0.345 ± 0.032; the activity coefficient (343.15 K) is 0.347 ± 0.032; the activity coefficient (353.15 K) turned out to be 0.348 ± 0.032.

As for `CCC(C)=O` [butanone] + CCCC[N+]1(C)CCCC1.N#CN=C=[N-], the activity coefficient stood at 1.26 ± 0.08 (318.15 K); 1.27 ± 0.08 (323.15 K); 1.32 ± 0.09 (333.15 K); 1.33 ± 0.09 (343.15 K); 1.35 ± 0.09 (353.15 K).

For the molecule `CC(C)=O` [acetone] + CCCC[N+]1(C)CCCC1.N#CN=C=[N-], the activity coefficient (318.15 K) came to 0.905 ± 0.057; the activity coefficient (323.15 K) was 0.917 ± 0.058; the activity coefficient (333.15 K) worked out at 0.942 ± 0.059; the activity coefficient (343.15 K) is 0.963 ± 0.061; the activity coefficient (353.15 K) is 0.986 ± 0.062.

Consider `CCO` [ethanol] + CCCC[N+]1(C)CCCC1.N#CN=C=[N-], for which the activity coefficient by setting is: (318.15 K) 0.55 ± 0.04; (323.15 K) 0.545 ± 0.04; (333.15 K) 0.538 ± 0.039; (343.15 K) 0.53 ± 0.039; (353.15 K) 0.525 ± 0.039.

As to `ClCCl` [dichloromethane] + CCCC[N+]1(C)CCCC1.N#CN=C=[N-], the activity coefficient is, setting by setting: (318.15 K) 0.541 ± 0.04; (323.15 K) 0.558 ± 0.04; (333.15 K) 0.591 ± 0.042; (343.15 K) 0.623 ± 0.043; (353.15 K) 0.655 ± 0.045.

Consider `COC(C)(C)C` [2-methoxy-2-methylpropane] + CCCC[N+]1(C)CCCC1.N#CN=C=[N-], for which the activity coefficient by setting is: (318.15 K) 6.04 ± 0.41; (323.15 K) 6.13 ± 0.42; (333.15 K) 6.29 ± 0.43; (343.15 K) 6.4 ± 0.44; (353.15 K) 6.53 ± 0.45.

For `CC(C)O` [propan-2-ol] + CCCC[N+]1(C)CCCC1.N#CN=C=[N-], the activity coefficient is, setting by setting: (318.15 K) 0.771 ± 0.05; (323.15 K) 0.761 ± 0.05; (333.15 K) 0.746 ± 0.049; (343.15 K) 0.733 ± 0.049; (353.15 K) 0.724 ± 0.048.

In the case of `FC(F)(F)C(Cl)Br` (stereo not given) [1-bromo-1-chloro-2,2,2-trifluoroethane] + CCCC[N+]1(C)CCCC1.N#CN=C=[N-], the activity coefficient reads like this: (318.15 K) 0.568 ± 0.041; (323.15 K) 0.606 ± 0.042; (333.15 K) 0.694 ± 0.047; (343.15 K) 0.776 ± 0.051; (353.15 K) 0.866 ± 0.055.

For the molecule `CCCCCCC` [heptane] + CCCC[N+]1(C)CCCC1.N#CN=C=[N-], the activity coefficient was found to be 76 ± 5.2 (318.15 K); 73.6 ± 5 (323.15 K); 68.9 ± 4.7 (333.15 K); 64.7 ± 4.4 (343.15 K); 60.9 ± 4.2 (353.15 K).

`Cc1ccccc1` [toluene] + CCCC[N+]1(C)CCCC1.N#CN=C=[N-]: the activity coefficient (318.15 K) turned out to be 2.17 ± 0.15; the activity coefficient (323.15 K) amounted to 2.2 ± 0.15; the activity coefficient (333.15 K) was 2.26 ± 0.15; the activity coefficient (343.15 K) was 2.3 ± 0.16; the activity coefficient (353.15 K) came to 2.35 ± 0.16.

Take `CCC1CCCCC1` [ethylcyclohexane] + CCCC[N+]1(C)CCCC1.N#CN=C=[N-]: the activity coefficient (318.15 K) stood at 50.1 ± 3.4; the activity coefficient (323.15 K) amounted to 48.4 ± 3.3; the activity coefficient (333.15 K) turned out to be 45.1 ± 3.1; the activity coefficient (343.15 K) amounted to 42.2 ± 2.9; the activity coefficient (353.15 K) stood at 39.6 ± 2.7.
